Among the data in ChEMBL document CHEMBL5291721, “A preclinical secondary pharmacology resource illuminates target-adverse drug reaction associations of marketed drugs” (Nat Commun, 2023) are AC50 values, retold here.

Each structure is given as a SMILES string.

In experiment [1] the target is T1, Alpha-1A adrenergic receptor (Homo sapiens, UniProt P35348).
T1 sequence (P35348 whole entry): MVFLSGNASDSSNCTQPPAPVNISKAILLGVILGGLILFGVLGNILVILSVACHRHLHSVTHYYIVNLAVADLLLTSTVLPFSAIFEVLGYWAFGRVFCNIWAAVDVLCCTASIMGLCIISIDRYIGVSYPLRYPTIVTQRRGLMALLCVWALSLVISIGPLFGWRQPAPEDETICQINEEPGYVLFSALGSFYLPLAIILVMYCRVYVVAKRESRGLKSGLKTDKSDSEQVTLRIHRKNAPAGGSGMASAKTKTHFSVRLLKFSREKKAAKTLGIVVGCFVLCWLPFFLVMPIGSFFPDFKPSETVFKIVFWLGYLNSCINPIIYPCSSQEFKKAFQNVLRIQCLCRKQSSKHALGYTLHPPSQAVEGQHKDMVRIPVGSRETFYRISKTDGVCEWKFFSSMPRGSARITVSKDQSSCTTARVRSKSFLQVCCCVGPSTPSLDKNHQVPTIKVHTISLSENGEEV
Format: functional, cell-based.

The target in experiment [2] is T2, Thromboxane A2 receptor (Homo sapiens, UniProt P21731).
T2 sequence (P21731 whole entry): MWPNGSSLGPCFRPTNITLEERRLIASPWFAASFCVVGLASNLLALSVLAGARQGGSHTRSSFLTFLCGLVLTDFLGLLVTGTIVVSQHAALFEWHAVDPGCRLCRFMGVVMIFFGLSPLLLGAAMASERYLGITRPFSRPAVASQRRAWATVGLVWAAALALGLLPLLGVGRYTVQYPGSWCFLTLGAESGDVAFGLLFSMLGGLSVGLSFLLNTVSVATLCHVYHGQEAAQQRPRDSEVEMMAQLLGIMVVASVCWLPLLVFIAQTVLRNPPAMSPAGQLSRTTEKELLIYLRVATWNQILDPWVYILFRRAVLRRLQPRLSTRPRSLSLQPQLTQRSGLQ

Experiment [3] deals with Gamma-aminobutyric acid receptor subunit alpha-1 (Rattus norvegicus, UniProt P62813).
Chain of Gamma-aminobutyric acid receptor subunit alpha-1 (P62813 whole entry): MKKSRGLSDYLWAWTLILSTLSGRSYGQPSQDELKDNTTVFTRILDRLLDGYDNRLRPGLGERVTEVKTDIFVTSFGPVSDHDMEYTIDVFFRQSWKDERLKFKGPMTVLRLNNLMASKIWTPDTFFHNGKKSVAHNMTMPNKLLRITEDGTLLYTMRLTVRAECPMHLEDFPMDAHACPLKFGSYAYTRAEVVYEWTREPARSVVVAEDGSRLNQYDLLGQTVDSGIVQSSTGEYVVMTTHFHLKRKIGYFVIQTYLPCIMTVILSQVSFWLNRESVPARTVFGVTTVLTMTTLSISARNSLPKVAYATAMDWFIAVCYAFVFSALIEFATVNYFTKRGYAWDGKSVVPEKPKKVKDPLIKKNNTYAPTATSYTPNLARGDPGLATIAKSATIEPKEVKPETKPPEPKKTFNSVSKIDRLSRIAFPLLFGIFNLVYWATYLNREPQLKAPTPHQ
In experiment [4] the target is T1, Alpha-1A adrenergic receptor. Format: functional, cell-based. This is another data set of the same source.
In experiment [5] the target is T3, Muscarinic acetylcholine receptor M2 (Homo sapiens, UniProt P08172).
T3 sequence (P08172 whole entry): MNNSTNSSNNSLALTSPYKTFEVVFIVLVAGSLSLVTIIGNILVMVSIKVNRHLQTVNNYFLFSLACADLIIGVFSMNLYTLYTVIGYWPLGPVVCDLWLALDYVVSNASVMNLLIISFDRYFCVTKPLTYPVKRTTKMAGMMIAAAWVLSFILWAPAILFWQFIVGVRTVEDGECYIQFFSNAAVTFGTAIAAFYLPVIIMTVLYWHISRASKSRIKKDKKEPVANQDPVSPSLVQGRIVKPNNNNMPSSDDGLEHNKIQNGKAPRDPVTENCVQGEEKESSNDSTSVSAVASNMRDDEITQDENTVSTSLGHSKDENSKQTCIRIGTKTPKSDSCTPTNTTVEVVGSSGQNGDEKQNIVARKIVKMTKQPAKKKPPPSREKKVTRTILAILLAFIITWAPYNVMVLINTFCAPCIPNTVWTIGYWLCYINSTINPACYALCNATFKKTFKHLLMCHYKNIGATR
Format: functional, cell-based.

Experiment [6] addresses T4, 5-hydroxytryptamine receptor 1A (Homo sapiens, UniProt P08908).
T4 sequence (P08908 whole entry): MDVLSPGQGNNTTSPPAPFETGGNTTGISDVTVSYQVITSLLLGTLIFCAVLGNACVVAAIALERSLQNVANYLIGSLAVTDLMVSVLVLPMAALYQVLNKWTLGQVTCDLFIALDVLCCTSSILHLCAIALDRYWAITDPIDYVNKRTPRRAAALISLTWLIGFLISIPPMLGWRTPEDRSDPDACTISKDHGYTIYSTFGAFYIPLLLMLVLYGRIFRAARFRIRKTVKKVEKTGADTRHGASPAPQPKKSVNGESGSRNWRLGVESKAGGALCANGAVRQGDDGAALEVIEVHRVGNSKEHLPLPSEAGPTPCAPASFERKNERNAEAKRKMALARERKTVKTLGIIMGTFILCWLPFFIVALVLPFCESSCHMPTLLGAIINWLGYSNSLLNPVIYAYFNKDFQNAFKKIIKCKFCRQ
Format: functional, cell-based.

The target in experiment [7] is T5, Alpha-2B adrenergic receptor (Homo sapiens, UniProt P18089).
T5 sequence (P18089 whole entry): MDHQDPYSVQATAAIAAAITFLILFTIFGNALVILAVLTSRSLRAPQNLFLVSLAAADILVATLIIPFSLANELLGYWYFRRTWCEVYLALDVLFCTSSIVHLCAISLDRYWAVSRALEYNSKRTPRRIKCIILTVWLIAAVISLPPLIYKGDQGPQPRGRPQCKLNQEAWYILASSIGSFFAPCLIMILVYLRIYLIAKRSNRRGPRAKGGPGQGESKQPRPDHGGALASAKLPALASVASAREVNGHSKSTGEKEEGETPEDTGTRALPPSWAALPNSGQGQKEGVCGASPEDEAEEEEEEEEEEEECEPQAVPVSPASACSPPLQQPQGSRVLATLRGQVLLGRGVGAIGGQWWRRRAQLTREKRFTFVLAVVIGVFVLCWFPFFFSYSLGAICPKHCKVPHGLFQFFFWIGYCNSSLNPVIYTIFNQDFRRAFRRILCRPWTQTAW

In experiment [8] the target is Muscarinic acetylcholine receptor M3 (Homo sapiens, UniProt P20309).
Chain of Muscarinic acetylcholine receptor M3 (P20309 whole entry): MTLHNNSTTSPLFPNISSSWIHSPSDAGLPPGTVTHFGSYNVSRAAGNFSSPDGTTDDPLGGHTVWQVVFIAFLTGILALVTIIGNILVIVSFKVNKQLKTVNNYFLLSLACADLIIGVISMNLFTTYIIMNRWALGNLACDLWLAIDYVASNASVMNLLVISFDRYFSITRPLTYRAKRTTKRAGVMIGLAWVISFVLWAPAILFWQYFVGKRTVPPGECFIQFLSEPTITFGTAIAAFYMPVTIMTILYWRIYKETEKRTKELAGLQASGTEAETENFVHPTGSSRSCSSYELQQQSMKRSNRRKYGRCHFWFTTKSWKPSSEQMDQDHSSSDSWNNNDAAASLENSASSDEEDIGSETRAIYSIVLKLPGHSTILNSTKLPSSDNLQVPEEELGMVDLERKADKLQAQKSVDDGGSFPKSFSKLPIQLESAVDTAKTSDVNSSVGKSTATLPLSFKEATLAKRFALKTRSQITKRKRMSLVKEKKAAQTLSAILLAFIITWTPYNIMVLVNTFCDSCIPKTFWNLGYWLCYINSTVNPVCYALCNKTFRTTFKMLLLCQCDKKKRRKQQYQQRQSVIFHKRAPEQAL
Experiment [9] has as its target T2, Thromboxane A2 receptor. Format: functional, cell-based.
The target of experiment [10] is T6, Adenosine receptor A3 (Homo sapiens, UniProt P0DMS8).
T6 sequence (P0DMS8 whole entry): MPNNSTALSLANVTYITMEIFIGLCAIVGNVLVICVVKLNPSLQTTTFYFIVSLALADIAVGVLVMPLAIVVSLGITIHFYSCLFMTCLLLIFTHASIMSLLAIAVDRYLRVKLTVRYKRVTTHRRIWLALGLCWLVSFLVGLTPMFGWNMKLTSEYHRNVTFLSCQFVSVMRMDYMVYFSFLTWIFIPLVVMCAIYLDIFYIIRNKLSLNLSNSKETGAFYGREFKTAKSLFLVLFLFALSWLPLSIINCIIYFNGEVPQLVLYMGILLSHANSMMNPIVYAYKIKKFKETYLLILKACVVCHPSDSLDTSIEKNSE

Experiment [11] concerns the target Acetylcholinesterase (Homo sapiens, UniProt P22303). Format: functional.
For experiment [12], the target named is Cannabinoid receptor 1 (Homo sapiens, UniProt P21554). Format: functional, cell-based.
Chain of Cannabinoid receptor 1 (P21554 whole entry): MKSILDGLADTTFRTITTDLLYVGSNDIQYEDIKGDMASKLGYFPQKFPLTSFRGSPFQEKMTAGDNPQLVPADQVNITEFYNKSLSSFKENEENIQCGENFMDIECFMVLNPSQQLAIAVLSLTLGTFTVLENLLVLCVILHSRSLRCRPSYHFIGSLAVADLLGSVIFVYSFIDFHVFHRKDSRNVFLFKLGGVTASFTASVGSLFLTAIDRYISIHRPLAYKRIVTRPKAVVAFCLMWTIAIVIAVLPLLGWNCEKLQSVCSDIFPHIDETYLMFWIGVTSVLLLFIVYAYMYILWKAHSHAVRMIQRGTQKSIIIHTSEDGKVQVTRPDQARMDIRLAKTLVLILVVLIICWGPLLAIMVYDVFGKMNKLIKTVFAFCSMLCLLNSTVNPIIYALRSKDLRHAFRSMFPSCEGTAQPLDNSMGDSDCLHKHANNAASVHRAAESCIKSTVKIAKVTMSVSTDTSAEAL

By AC50 is commonly meant the concentration giving half of the maximal activity seen. A lower AC50 goes with activity at low concentration.
Also: assay procedure not described here.

Chain of Acetylcholinesterase (P22303 whole entry): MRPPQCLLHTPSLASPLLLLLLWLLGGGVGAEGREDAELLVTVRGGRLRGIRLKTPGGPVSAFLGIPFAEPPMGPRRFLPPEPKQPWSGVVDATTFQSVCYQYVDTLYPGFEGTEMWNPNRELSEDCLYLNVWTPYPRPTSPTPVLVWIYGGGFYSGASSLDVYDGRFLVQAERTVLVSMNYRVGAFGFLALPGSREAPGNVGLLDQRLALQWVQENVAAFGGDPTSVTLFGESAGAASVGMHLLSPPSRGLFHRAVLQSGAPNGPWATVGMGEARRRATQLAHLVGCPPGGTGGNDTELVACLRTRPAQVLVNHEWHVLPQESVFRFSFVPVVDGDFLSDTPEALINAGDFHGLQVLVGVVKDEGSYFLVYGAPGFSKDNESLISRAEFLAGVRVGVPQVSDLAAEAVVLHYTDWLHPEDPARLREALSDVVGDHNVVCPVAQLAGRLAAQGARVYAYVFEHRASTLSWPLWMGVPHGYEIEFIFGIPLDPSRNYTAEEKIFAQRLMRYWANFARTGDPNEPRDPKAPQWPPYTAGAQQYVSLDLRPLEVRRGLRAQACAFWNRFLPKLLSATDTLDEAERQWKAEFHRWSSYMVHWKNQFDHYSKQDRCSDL

Consider `COC(=O)CCc1ccc(OCC(O)CNC(C)C)cc1` (stereo not given) [ESMOLOL], for which the AC50 in experiment [1], in experiment [2], in experiment [3], in [4] and in [5] was over 30 µM each time.

As to `CC(C)C[C@H](NC(=O)[C@H](Cc1ccccc1)NC(=O)c1cnccn1)B(O)O` [BORTEZOMIB], the AC50 in experiment [6], in [2], in experiment [3], in [7], in experiment [8] and in [5] was over 30 µM throughout.

On to `O=c1[nH]c2ccccc2n1CCN1CCN(c2cccc(C(F)(F)F)c2)CC1` [FLIBANSERIN], for which the AC50 in experiment [9] is 10.5 µM; in experiment [10], 15.6 µM; in experiment [11] it was over 30 µM.

Regarding `NC(=O)C1(N2CCCCC2)CCN(CCCC(=O)c2ccc(F)cc2)CC1` [PIPAMPERONE], the AC50 in [9], in [10] and in experiment [11] was over 30 µM each time.

With `COc1cccc2c1C(=O)c1c(O)c3c(c(O)c1C2=O)C[C@@](O)(C(=O)CO)C[C@@H]3O[C@H]1C[C@H](N)[C@H](O[C@@H]2CCCCO2)[C@H](C)O1` [PIRARUBICIN], the AC50 in [9] and in [11] was over 10 µM each time.

`CCCCCCCCCCCCCCCC(=O)OC[C@H](COP(=O)([O-])OCC[N+](C)(C)C)OC(=O)CCCCCCCCCCCCCCC` [COLFOSCERIL PALMITATE]: the AC50 in [9] and in experiment [11] was over 30 µM throughout.

As to `CN1CCN(C(c2ccccc2)c2ccc(Cl)cc2)CC1` (stereo not given) [CHLORCYCLIZINE], the AC50 in experiment [10] and in [11] was over 30 µM throughout.

In the case of `O=c1[nH]cc(F)c(=O)[nH]1` [FLUOROURACIL], the AC50 in experiment [9] and in experiment [11] was over 30 µM each time.

Turning to `NCCCCCC(=O)O` [AMINOCAPROIC ACID], the AC50 in experiment [6], in experiment [2], in experiment [3] and in [5] was over 10 µM in each case.

With `CO[C@@]1(NC(=O)C(C(=O)O)c2ccc(O)cc2)C(=O)N2C(C(=O)O)=C(CSc3nnnn3C)CO[C@@H]21` (stereo not given in full) [MOXALACTAM], the AC50 in experiment [9] and in [11] was over 30 µM in each case.

For `O=C(O)[C@@H](S)[C@@H](S)C(=O)O`, the AC50 in experiment [9] and in experiment [11] was over 30 µM each time.

For `CC#CC(=O)N1CCC[C@H]1c1nc(-c2ccc(C(=O)Nc3ccccn3)cc2)c2c(N)nccn12` [ACALABRUTINIB], the half-maximal activity concentration (AC50) in experiment [9] and in [11] was over 30 µM each time.

Take `CC(C)NCC(O)COc1ccc(CC(N)=O)cc1` (stereo not given) [ATENOLOL]: the AC50 in experiment [1], in experiment [2] and in experiment [4] was over 30 µM throughout.

For the molecule `CNC1(C)C2CCC(C2)C1(C)C` (stereo not given) [MECAMYLAMINE], the AC50 was over 10 µM in [6]; over 10 µM in experiment [2]; over 10 µM in [7]; over 30 µM in experiment [8]; over 10 µM in experiment [5].

With `CC[N+](CC)(CCNC(=O)C(=O)NCC[N+](CC)(CC)Cc1ccccc1Cl)Cc1ccccc1Cl` [AMBENONIUM], the AC50 was over 30 µM in experiment [12]; over 30 µM in experiment [6]; over 30 µM in [2]; over 30 µM in experiment [3]; over 30 µM in experiment [7]; 1.1 µM in experiment [8]. The AC50 in [5] stood at 2.2 µM.

For `CC(=O)SCC(Cc1ccccc1)C(=O)NCC(=O)OCc1ccccc1` (stereo not given) [RACECADOTRIL], the AC50 in experiment [12] is 17 µM; in [6], over 30 µM; in [2] it was over 30 µM; in experiment [3], over 30 µM; in experiment [7], over 30 µM; in experiment [8], over 30 µM. The AC50 in [5] is over 30 µM.

In the case of `CCOc1ccccc1OCCN[C@H](C)Cc1ccc(OC)c(S(N)(=O)=O)c1` [TAMSULOSIN], the AC50 in experiment [6] was 0.02 µM; in [2] it was over 30 µM; in experiment [3], over 10 µM; in experiment [7], 1.9 µM; in [8], over 30 µM; in experiment [5], over 10 µM.

As to `CCCCCCCC/C=C\CCCCCCCC(=O)O` [OLEIC ACID], the AC50 is 25.3 µM in [9] and over 30 µM in experiment [11].

Regarding `NC(=O)C1(N2CCCCC2)CCN(CCCN2c3ccccc3CCc3ccccc32)CC1` [CARPIPRAMINE], the AC50 in experiment [10] and in experiment [11] was over 30 µM throughout.

Turning to `O=C(O)COC(=O)Cc1ccccc1Nc1c(Cl)cccc1Cl` [ACECLOFENAC], the AC50 in experiment [12] is over 30 µM; in experiment [1], over 30 µM; in experiment [6] it was over 10 µM; in [2] it was 2.54 µM; in experiment [3], over 10 µM; in experiment [4], over 30 µM. This molecule also had an AC50 in [5] of over 10 µM.

Turning to `CCC1(c2ccccc2)C(=O)NCNC1=O` [PRIMIDONE], the AC50 in experiment [6], in experiment [2] and in experiment [5] was over 10 µM in each case.

On to `CCN(CCO)CCCC(C)Nc1ccnc2cc(Cl)ccc12` (stereo not given) [HYDROXYCHLOROQUINE], for which the AC50 in [6], in [2], in experiment [3] and in experiment [5] was over 10 µM each time.

Consider `O=C(c1ccccc1)c1ccc2n1CCC2C(=O)O` (stereo not given) [KETOROLAC], for which the AC50 was over 30 µM in experiment [1]; over 10 µM in [6]; over 10 µM in experiment [2]; over 30 µM in experiment [3]; over 30 µM in [4]; over 30 µM in experiment [5].

Regarding `C[C@H](Cn1cnc2c(N)ncnc21)OCP(=O)(O)O` [TENOFOVIR ANHYDROUS], the AC50 in experiment [1], in experiment [6], in experiment [2], in [3], in experiment [7] and in experiment [8] was over 30 µM in each case. Moreover, the AC50 in [4] and in [5] was over 30 µM in each case.
